The results in this text go back to patent US20030162661A1, “2,4-Diamino-1,3,5-triazines, their preparation, and their use as herbicides and plant growth regulators” (priority 1998, published 2003).

Assay [1] relates to harmful plants such as Stellaria media, Lolium multiflorum, Amaranthus retroflexus, Sinapis alba, Avena sativa and Setaria viridis. The assay is described as follows: Pre-emergence effect on weeds (greenhouse pot test, visual scoring).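 Note: scored as plant damage or reduced emergence.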 Format: in vivo. The conditions noted are these: applied pre-emergence at an application rate of 1 kg or less of active substance per hectare; scored visually after 3 to 4 weeks vs untreated controls. From the text: 1 Pre-emergence Effect on Weeds
Seeds or rhizome pieces of monocotyledonous and dicotyledonous weeds plants are placed in sandy loam soil in plastic pots and covered with soil. The compounds according to the invention which are formulated in the form of wettable powders or emulsion concentrates are then applied to the surface of the soil cover in the form of an aqueous suspension or emulsion at an application rate of 600 to 800 l of water/ha (converted), in various dosages.

Assay [2] relates to harmful plants such as Sinapis alba, Echinochloa crus- galli, Lolium multiflorum, Stellaria media, Cyperus iria, Amaranthus retroflexus, Setaria viridis and …. In words: Post-emergence effect on weeds (greenhouse pot test, visual scoring). Format: in vivo. To be noted: applied post-emergence (three-leaf stage) at an application rate of 1 kg and less of active substance per hectare; scored visually after about 3 to 4 weeks vs untreated controls. As for the experimental part: 2. Post-emergence Effect on Weeds
Seeds or rhizome pieces of monocotyledonous and dicotyledonous weeds are placed in sandy loam soil in plastic pots, covered with soil and grown in the greenhouse under good growth conditions. Three weeks after sowing, the test plants are treated in the three-leaf stage. The compounds according to the invention which are formulated as wettable powders or as emulsion concentrates are sprayed in various dosages on the green parts of the plants at an application rate of 600 to 800 l of water/ha (converted). After the test plants have remained in the greenhouse for about 3 to 4 weeks under ideal growth conditions, the effect of the preparations is scored visually by comparison with untreated controls. The agents according to the invention also have a good herbicidal post-emergence action against a broad range of economically important grass weeds and dicotyledonous weeds.

Turning to `CC(C)c1nc(N)nc(NC(CCCc2cccc(Cl)c2)C2CCC2)n1` (stereo not drawn) [Example 28-13], the “herbicidal action against harmful plants, pre-emergence” value (shortened to “herbicidal action … pre-emergence”) in assay [1] is “very good herbicidal action”. Further, the “herbicidal action against harmful plants, post-emergence” value (“herbicidal action … post-emergence” below) in assay [2] is reported as “very good herbicidal action”.

With `CC(F)c1nc(N)nc(NC(CCCc2ccccc2)C2CC2)n1` (stereo not drawn) [Example 22-3], the “herbicidal action … pre-emergence” value in assay [1] is recorded as “very good herbicidal action”. The “herbicidal action … post-emergence” value in assay [2] was “very good herbicidal action”.

For the molecule `Nc1nc(NC(CCc2ccccc2)C2CC2)nc(-c2ccccc2)n1` (stereo not drawn) [Example 9-19], in assay [1], the “herbicidal action … pre-emergence” value is on record as “very good herbicidal action”. Also, the “herbicidal action … post-emergence” value in assay [2] is recorded as “very good herbicidal action”.

Consider `CC(C)(F)c1nc(N)nc(NC(CCc2cccc(Cl)c2)C2CCC2)n1` (stereo not drawn) [Example 4-11], for which the “herbicidal action … pre-emergence” value in assay [1] is reported as “very good herbicidal action”. The “herbicidal action … post-emergence” value in assay [2] was “very good herbicidal action”.

On to `CC(C)c1nc(N)nc(NC(CCCc2ccccc2)C2CC2)n1` (stereo not drawn) [Example 22-11], for which the “herbicidal action … pre-emergence” value in assay [1] is given as “very good herbicidal action”. The “herbicidal action … post-emergence” value in assay [2] is reported as “very good herbicidal action”.

Take `COc1cccc(CCC(CC2CC2)Nc2nc(N)nc(C(C)C)n2)c1` (stereo not drawn) [Example 32-11]: the “herbicidal action … pre-emergence” value in assay [1] is recorded as “very good herbicidal action”. In assay [2], the “herbicidal action … post-emergence” value was “very good herbicidal action”.

In the case of `CC(C)(F)c1nc(N)nc(NC(C=Cc2ccccc2)C2CC2)n1` (stereo not drawn) [Example 44-1], in assay [1], the “herbicidal action … pre-emergence” value is on record as “very good herbicidal action”. Also, in assay [2], the “herbicidal action … post-emergence” value is “very good herbicidal action”.

Take `Cc1nc(N)nc(NC(CCCc2ccccc2)C2CC2)n1` (stereo not drawn) [Example 22-8]: the “herbicidal action … pre-emergence” value in assay [1] is “very good herbicidal action”. Further, the “herbicidal action … post-emergence” value in assay [2] was “very good herbicidal action”.

As for `CC(C)c1nc(N)nc(NC(CCc2cccc(Cl)c2)C2CCC2)n1` (stereo not drawn) [Example 4-10], the “herbicidal action … pre-emergence” value in assay [1] is on record as “very good herbicidal action”. Moreover, in assay [2], the “herbicidal action … post-emergence” value is “very good herbicidal action”.

For `CCc1nc(N)nc(NC(CCc2ccccc2)CC2CC2(F)F)n1` (stereo not drawn) [Example 33-4], the “herbicidal action … pre-emergence” value in assay [1] is reported as “very good herbicidal action”. The “herbicidal action … post-emergence” value in assay [2] is listed as “very good herbicidal action”.

Regarding `COc1cccc(CCC(CC2CC2)Nc2nc(N)nc(C(C)(C)F)n2)c1` (stereo not drawn) [Example 32-12], the “herbicidal action … pre-emergence” value in assay [1] is on record as “very good herbicidal action”. Besides, the “herbicidal action … post-emergence” value in assay [2] is on record as “very good herbicidal action”.

Turning to `CC(C)c1nc(N)nc(NC(CCc2cccc(F)c2)C2CCC2)n1` (stereo not drawn) [Example 4-27], the “herbicidal action … pre-emergence” value in assay [1] is reported as “very good herbicidal action”. Further, the “herbicidal action … post-emergence” value in assay [2] is recorded as “very good herbicidal action”.

Regarding `CC(C)c1nc(N)nc(NC(CCCCc2ccccc2)C2CCC2)n1` (stereo not drawn) [Example 31-3], the “herbicidal action … pre-emergence” value in assay [1] is “very good herbicidal action”. The “herbicidal action … post-emergence” value in assay [2] is recorded as “very good herbicidal action”.

Regarding `COc1cccc(CCCC(Nc2nc(N)nc(C(C)(C)F)n2)C2CC2)c1` (stereo not drawn) [Example 22-30], the “herbicidal action … pre-emergence” value in assay [1] is “very good herbicidal action”. For the same molecule, in assay [2], the “herbicidal action … post-emergence” value is listed as “very good herbicidal action”.

As for `Cc1cccc(CCC(Nc2nc(N)nc(C(C)C)n2)C2CC2)c1` (stereo not drawn) [Example 9-12], the “herbicidal action … pre-emergence” value in assay [1] is listed as “very good herbicidal action”. In addition, the “herbicidal action … post-emergence” value in assay [2] is “very good herbicidal action”.

For the molecule `COc1cccc(CCC(Nc2nc(N)nc(C(C)(C)F)n2)C2CC2)c1` (stereo not drawn) [Example 9-14], the “herbicidal action … pre-emergence” value in assay [1] is given as “very good herbicidal action”. In addition, the “herbicidal action … post-emergence” value in assay [2] was “very good herbicidal action”.

Take `CC(C)(F)c1nc(N)nc(NC(CCc2ccccc2)c2ccccc2)n1` (stereo not drawn) [Example 18-3]: the “herbicidal action … pre-emergence” value in assay [1] is reported as “very good herbicidal action”. For the same molecule, the “herbicidal action … post-emergence” value in assay [2] was “very good herbicidal action”.

With `Cc1ccccc1CCC(Nc1nc(N)nc(C(C)C)n1)C1CCC1` (stereo not drawn) [Example 4-26], the “herbicidal action … pre-emergence” value in assay [1] is “very good herbicidal action”. Also, the “herbicidal action … post-emergence” value in assay [2] is “very good herbicidal action”.

`COc1cccc(CCCC(Nc2nc(N)nc(C(C)C)n2)C2CC2)c1` (stereo not drawn) [Example 22-29]: the “herbicidal action … pre-emergence” value in assay [1] was “very good herbicidal action”. In addition, the “herbicidal action … post-emergence” value in assay [2] is recorded as “very good herbicidal action”.

`CC(C)c1nc(N)nc(NC(CCCc2ccccc2)C2CCC2)n1` (stereo not drawn) [Example 28-4]: the “herbicidal action … pre-emergence” value in assay [1] is “very good herbicidal action”. In addition, in assay [2], the “herbicidal action … post-emergence” value is recorded as “very good herbicidal action”.

As to `CC(C)(F)c1nc(N)nc(NC(CCc2ccccc2)CC2CC2)n1` (stereo not drawn) [Example 32-2], the “herbicidal action … pre-emergence” value in assay [1] is “very good herbicidal action”. Further, the “herbicidal action … post-emergence” value in assay [2] was “very good herbicidal action”.

On to `CC(C)(F)c1nc(N)nc(NC(CCCc2cccc(F)c2)C2CC2)n1` (stereo not drawn) [Example 22-24], for which the “herbicidal action … pre-emergence” value in assay [1] was “very good herbicidal action”. In assay [2], the “herbicidal action … post-emergence” value is listed as “very good herbicidal action”.

Regarding `Cc1cccc(CCC(CC2CC2)Nc2nc(N)nc(C(C)C)n2)c1` (stereo not drawn) [Example 32-9], the “herbicidal action … pre-emergence” value in assay [1] is “very good herbicidal action”. Besides, the “herbicidal action … post-emergence” value in assay [2] is “very good herbicidal action”.

Turning to `CC(C)(F)c1nc(N)nc(NC(CCc2cccc(C(F)(F)F)c2)C2CC2)n1` (stereo not drawn) [Example 9-6], in assay [1], the “herbicidal action … pre-emergence” value is recorded as “very good herbicidal action”. Further, the “herbicidal action … post-emergence” value in assay [2] was “very good herbicidal action”.

As for `CC(C)(F)c1nc(N)nc(NC(CCCc2ccccc2)C2CCC2)n1` (stereo not drawn) [Example 28-10], in assay [1], the “herbicidal action … pre-emergence” value was “very good herbicidal action”. Moreover, in assay [2], the “herbicidal action … post-emergence” value was “very good herbicidal action”.

As to `CC(C)(F)c1nc(N)nc(NC(CCc2cccc(Cl)c2)CC2CC2)n1` (stereo not drawn) [Example 32-6], the “herbicidal action … pre-emergence” value in assay [1] is on record as “very good herbicidal action”. Also, in assay [2], the “herbicidal action … post-emergence” value was “very good herbicidal action”.

With `CC(C)(F)c1nc(N)nc(NC(CCCc2ccccc2)C2CC2)n1` (stereo not drawn) [Example 22-12, 2-Amino-4-(1-fluoro-1-methylethyl)-6-(1-phenyl-4-cyclopropyl-4-butylamino)-1,3,5-triazine], the “herbicidal action … pre-emergence” value in assay [1] is recorded as “very good herbicidal action”. Moreover, the “herbicidal action … post-emergence” value in assay [2] is reported as “very good herbicidal action”.

Turning to `CCc1nc(N)nc(NC(CCCc2ccccc2)C2CC2)n1` (stereo not drawn) [Example 22-9], the “herbicidal action … pre-emergence” value in assay [1] was “very good herbicidal action”. Moreover, the “herbicidal action … post-emergence” value in assay [2] was “very good herbicidal action”.

Regarding `CC(C)(F)c1nc(N)nc(NC(CCc2ccccc2)C2CCOC2)n1` (stereo not drawn) [Example 20-1], the “herbicidal action … pre-emergence” value in assay [1] is recorded as “very good herbicidal action”. Moreover, in assay [2], the “herbicidal action … post-emergence” value was “very good herbicidal action”.

Consider `COc1cccc(CCCC(Nc2nc(N)nc(C(C)C)n2)C2CCC2)c1` (stereo not drawn) [Example 28-20], for which, in assay [1], the “herbicidal action … pre-emergence” value is listed as “very good herbicidal action”. In addition, the “herbicidal action … post-emergence” value in assay [2] is given as “very good herbicidal action”.

`COc1cccc(CCCC(Nc2nc(N)nc(C(C)(C)F)n2)C2CCC2)c1` (stereo not drawn) [Example 28-21]: the “herbicidal action … pre-emergence” value in assay [1] is “very good herbicidal action”. Also, in assay [2], the “herbicidal action … post-emergence” value was “very good herbicidal action”.

Turning to `CC(C)Cc1nc(N)nc(NC(CCc2ccccc2)C2CC2)n1` (stereo not drawn) [Example 9-1], in assay [1], the “herbicidal action … pre-emergence” value is given as “very good herbicidal action”. The “herbicidal action … post-emergence” value in assay [2] was “very good herbicidal action”.

On to `CC(C)(F)c1nc(N)nc(NC(CCCCc2ccccc2)C2CC2)n1` (stereo not drawn) [Example 30-2], for which the “herbicidal action … pre-emergence” value in assay [1] is on record as “very good herbicidal action”. The “herbicidal action … post-emergence” value in assay [2] is on record as “very good herbicidal action”.

In the case of `CC(C)(F)c1nc(N)nc(NC(CCCCc2ccccc2)C2CCC2)n1` (stereo not drawn) [Example 31-1], the “herbicidal action … pre-emergence” value in assay [1] is reported as “very good herbicidal action”. The “herbicidal action … post-emergence” value in assay [2] is “very good herbicidal action”.

Turning to `Cc1cccc(CCCC(Nc2nc(N)nc(C(C)C)n2)C2CCC2)c1` (stereo not drawn) [Example 28-17], in assay [1], the “herbicidal action … pre-emergence” value was “very good herbicidal action”. Moreover, in assay [2], the “herbicidal action … post-emergence” value is “very good herbicidal action”.

Turning to `Cc1cccc(CCC(Nc2nc(N)nc(C(C)(C)F)n2)C2CC2)c1` (stereo not drawn) [Example 9-16], in assay [1], the “herbicidal action … pre-emergence” value was “very good herbicidal action”. In assay [2], the “herbicidal action … post-emergence” value was “very good herbicidal action”.
